Test results from US20200316156A1, “NASAL BALM FOR RELIEVING ALLERGIC RHINITIS SYMPTOMS” (priority 2019, published 2020).
Several values for one entry are separate records, joined by “and”; a condition that tells them apart may be missing. Equal entries are not always repeated. Structures can show the parent of a compound that is named as a salt.

Test system: allergic rhinitis of BALB/c mice
Assay: OVA-induced allergic rhinitis in BALB/c mice, sneeze number
Format: in vivo
Details: for Sneeze number, individual mouse: within 15 min after administration, mice No. 1-4, hydrochloride
Description: 1. Experimental objective: to study the effect of the nasal balm of the disclosure on the allergic rhinitis of BALB/c mice.
2 mg of OVA powder was weighed, dissolved with physiologic saline solution. The final volume was calibrated accurately to 14 mL. 3.5 mL of the OVA solution was pipetted into a 5 mL Eppendorf tube, followed by the addition of 0.5 mL of uniform aluminum hydroxide gel, and then the OVA solution was dropwise added. The mixture was shaken for 30 min, and then 0.2 mL of the resulting solution was injected to each mouse to induce the sensitization.
2 mg of OVA powder was weighed, dissolved with physiologic saline solution. The final volume was calibrated accurately to 14 mL.
The mice were quarantined, adaptively fed, and divided into four groups: normal group, model group, positive control group and test group. Each group had 4 mice labeled as No. 1, No. 2, No. 3 and No. 4, respectively. The rest two mice were as backup.
The model group, positive control group and test group were administered with OVA solution through abdominal cavity to induce sensitization. Each mouse was administered with 0.2 mL of OVA solution containing 25 μg of OVA and 1 mg of aluminum hydroxide. Normal group as a control was injected with physiological saline solution at a dosage of 0.2 mL per mouse, where the first injection was labeled as D0, and the second injection and the third injection were performed on D7 and D14, respectively.
After induction, the drugs were administrated to initiate sensitization. The test product was smeared on the noses of the mice in normal group 6 times each day. After application of the test product each day, 20 μL of physiological saline solution was dripped into the nasal cavity of the mice in normal group as a control, at a dosage of 10 μL per nostril. The physiological saline solution was smeared on the nose of the mice in model group 6 times each day. 5 μL of Levocabastine was dripped into the nasal cavity of the mice in positive control group 2 times each day, at a dosage of 2.5 μL per nostril. The test product was smeared on the noses of the mice in test group 6 times each day. After administration of the drugs each day, 20 μL of the OVA solution for sensitization was dripped into the nasal cavity of the mice in model group, positive control group and test group, respectively, at a dosage of 10 μL per nostril.
Daily administration was continued for 10 days from D20-D30. On D23, D27 and D30 (that is, the 3rd day, 7th day and 10th day after administration), the number of times mice sneezed in each group within 15 min after administration was counted.
Unpaired two-tailed t-test was used to analyze data for each group.

Structure (SMILES): C[C@@H]1CN([C@H]2CC[C@](C#N)(c3ccc(F)cc3)CC2)CC[C@]1(C(=O)O)c1ccccc1 [Levocabastine, Levocabastine hydrochloride]
- Sneeze number compared with the model group (3rd day of administration): decreased significantly
- Sneeze number compared with the model group (7th day of administration): no significant difference
- Sneeze number compared with the model group (10th day of administration): no significant difference
- Sneeze number, individual mouse (D23 (3rd day of administration)): 7 and 15 and 8 and 11
- Sneeze number of mice, statistical data (D23, group of 4 mice, model group 22.75 ± 1.50): 10.25 ± 3.59
- Sneeze number, individual mouse (D27 (7th day of administration)): 75 and 45 and 44 and 22
- Sneeze number of mice, statistical data (D27, group of 4 mice, model group 69.75 ± 17.08): 46.50 ± 21.76
- Sneeze number, individual mouse (D30 (10th day of administration)): 124 and 108 and 46 and 110
- Sneeze number of mice, statistical data (D30, group of 4 mice, model group 100.25 ± 14.13): 97.00 ± 34.74
